The target of one test is Human D1 Receptor (Homo sapiens (Human), UniProt P21728). Description: Human D1 receptor binding assay ([3H]-SCH23390 competition binding). Particulars: over-expressing LTK human cell lines; 0.5 nM [3H]-SCH23390; 30 min at 37° C.; footnote a = single determination, b = geometric mean of ≧5 determinations. The method, then: D1 binding assays were performed using over-expressing LTK human cell lines. […] These ligand and tissue concentrations were used in time course studies to determine linearity and equilibrium conditions for binding. […] The pellet was resuspended in assay buffer [50 mM Tris (pH 7.4@ RT) containing 4 mM MgSO4 and 0.5 mM EDTA]. […] Non-specific binding was determined by radioligand binding in the presence of a saturating concentration of (+)-Butaclamol (10 μM), a D1 antagonist After a 30 minute incubation period at 37° C., assay samples were rapidly filtered through Unifilter-96 GF/B PEI-coated filter plates and rinsed with 50 mM Tris buffer (pH 7.4 at 4° C.). […] Ki values were calculated according to the Cheng-Prusoff equation: […]
Human D1 Receptor, sequence (P21728 whole entry): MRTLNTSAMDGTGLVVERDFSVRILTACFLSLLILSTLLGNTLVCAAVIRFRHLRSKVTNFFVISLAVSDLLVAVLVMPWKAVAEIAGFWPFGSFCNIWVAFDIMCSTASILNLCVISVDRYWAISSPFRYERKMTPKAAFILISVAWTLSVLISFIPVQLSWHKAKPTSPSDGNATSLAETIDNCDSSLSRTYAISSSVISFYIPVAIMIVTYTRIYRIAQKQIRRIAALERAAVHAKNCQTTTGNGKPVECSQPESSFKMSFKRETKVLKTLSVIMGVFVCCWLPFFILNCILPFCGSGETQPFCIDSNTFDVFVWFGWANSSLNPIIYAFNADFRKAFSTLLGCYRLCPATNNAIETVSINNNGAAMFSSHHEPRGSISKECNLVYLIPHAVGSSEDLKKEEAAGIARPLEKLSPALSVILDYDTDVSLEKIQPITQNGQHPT
The term Ki denotes a dissociation constant, usually derived from enzyme kinetics or from competition with a known ligand. With `Cc1ncnc(C)c1-c1ccc(Oc2nccn3cccc23)cc1C#N` [Example 10, 2-(4,6-dimethylpyrimidin-5-yl)-5-(pyrrolo[1,2-a]pyrazin-1-yloxy)benzonitrile], the inhibition constant Ki was determined as 63.9 nM.

Still in this test, the particulars now being: read-out: Human D1 Receptor Binding, Ki (nM); Geometric mean of 2-4 determinations (unless otherwise indicated); over-expressing LTK human cell lines; 0.5 nM [3H]-SCH23390; 30 min at 37° C.; footnote a = single determination, b = geometric mean of ≧5 determinations.
In the case of `Cc1cc(Oc2nccn3cccc23)c(F)cc1-c1c(C)ncnc1C` [Example 35, 1-[4-(4,6-dimethylpyrimidin-5-yl)-2-fluoro-5-methylphenoxy]pyrrolo[1,2-a]pyrazine], the inhibitory constant (Ki) worked out at 31.5 nM. Turning to `Cc1ncnc(C)c1-c1ccc(Oc2ncnn3cccc23)c(F)c1` [Example 33, 4-[4-(4,6-dimethylpyrimidin-5-yl)-2-fluorophenoxy]pyrrolo[2,1-f][1,2,4]triazine], the Ki was found to be 252 nM. For the compound `Cc1cc(Oc2ncnn3cccc23)ccc1-c1c(C)cnnc1C` [Example 9, 4-[4-(3,5-dimethylpyridazin-4-yl)-3-methylphenoxy]pyrrolo[2,1-f][1,2,4]triazine], the Ki came out at 35.8 nM.

As to `Cc1ncnc(C)c1-c1ccc(Oc2ncnn3cccc23)cc1C#N` [Example 38, 2-(4,6-dimethylpyrimidin-5-yl)-5-(pyrrolo[2,1-f][1,2,4]triazin-4-yloxy)benzonitrile], the inhibition constant (Ki) was 141 nM.

Take `Cc1ncnc(C)c1-c1ccc(Oc2nccn3cccc23)cc1` [Example 21, 1-[4-(4,6-dimethylpyrimidin-5-yl)phenoxy]pyrrolo[1,2-a]pyrazine]: the Ki was determined as 102 nM. The same measure, in the same setting: the value for `COc1cc(Oc2nccn3cccc23)ccc1-c1c(C)cnnc1C` [Example 27, 1-[4-(3,5-dimethylpyridazin-4-yl)-3-methoxyphenoxy]pyrrolo[1,2-a]pyrazine] was 28.1 nM. Consider `Cc1ncnc(C)c1-c1cc(F)c(Oc2nccn3cccc23)cc1F` [Example 26, 1-[4-(4,6-dimethyipyrimidin-5-yl)-2,5-difluorophenoxy]pyrrolo[1,2-a]pyrazine], for which the Ki was found to be 86.1 nM. In the case of `Cc1cnnc(C)c1-c1ccc(Oc2ncnn3cccc23)cc1F` [Example 22, 4-[4-(3,5-dimethylpyridazin-4-yl)-3-fluorophenoxy]pyrrolo[2,1-f][1,2,4]triazine], the inhibition constant Ki worked out at 105 nM. As for `Cc1ncnc(C)c1-c1ccc(Oc2nccn3nccc23)cc1F` [Example 17, 4-[4-(4,6-dimethylpyrimidin-5-yl)-3-fluorophenoxy]pyrazolo[1,5-a]pyrazine], the Ki turned out to be 183 nM. For `Cc1ncnc(C)c1-c1ccc(Oc2nccn3cccc23)cc1Cl` [Example 37, 1-[3-chloro-4-(4,6-dimethylpyrimidin-5-yl)phenoxy]pyrrolo[1,2-a]pyrazine], the Ki was 12.7 nM. Regarding `Cc1ncnc(C)c1-c1cc(F)c(Oc2ncnn3cccc23)cc1F` [Example 29, 4-[4-(4,6-dimethylpyrimidin-5-yl)-2,5-difluorophenoxy]pyrrolo[2,1-f][1,2,4]triazine], the Ki came out at 85.7 nM. The same measure, in the same setting: for `Cc1cc(Oc2ncnn3cccc23)ccc1-c1c(C)ncc(=O)n1C` [Example 39, 1,5-dimethyl-6-[2-methyl-4-(pyrrolo[2,1-f][1,2,4]triazin-4-yloxy)phenyl]pyrazin-2(1H)-one] the value was 31.2 nM; for `Cc1cc(Oc2ccnc3ccnn23)ccc1-c1c(C)ncnc1C` [Example 40, 7-[4-(4,6-dimethylpyrimidin-5-yl)-3-methylphenoxy]pyrazolo[1,5-a]pyrimidine], greater than 6400 nM; for `Cc1cc(Oc2ncnn3cccc23)ccc1-c1c(C)ncnc1C` [Example 5, 4-[4-(4,6-dimethylpyrimidin-5-yl)-3-methylphenoxy]pyrrolo[2,1-f][1,2,4]triazine], 56.4 nM. As to `Cc1ncnc(C)c1-c1ccc(Oc2nccn3cccc23)c(F)c1` [Example 34, 1-[4-(4,6-dimethylpryimidin-5-yl)-2-fluorophenoxy]pyrrolo[1,2-a]pyrazine], the Ki came to 49.4 nM.

Turning to `COc1cc(Oc2nccn3cccc23)ccc1-c1c(C)ncnc1C` [Example 41, 1-[4-(4,6-dimethylpyrimidin-5-yl)-3-methoxyphenoxy]pyrrolo[1,2-a]pyrazine], the Ki came out at 34.7 nM. Still for that read-out and setting: the value for `Cc1cc(Oc2nccn3nccc23)ccc1-c1c(C)ncnc1C` [Example 6, 4-[4-(4,6-dimethylpyrimidin-5-yl)-3-methylphenoxy]pyrazolo[1,5-a]pyrazine] was 61.3 nM; that for `Cc1c(-c2ccc(Oc3nccn4cccc34)cc2)n(C)c(=O)[nH]c1=O` [Example 15, 1,5-dimethyl-6-[4-(pyrrolo[1,2-a]pyrazin-1-yloxy)phenyl]pyrimidine-2,4(1H,3H)-dione] was 7.3 nM. Regarding `COc1cc(Oc2nccn3cccc23)ccc1-c1cccnc1C` [Example 25, 1-[3-methoxy-4-(2-methylpyridin-3-yl)phenoxy]pyrrolo[1,2-a]pyrazine], the Ki is 56.4 nM. Turning to `Cc1ncnc(C)c1-c1ccc(Oc2nccn3cccc23)cc1F` [Example 20, 1-[4-(4,6-dimethylpyrimidin-5-yl)-3-fluorophenoxy]pyrrolo[1,2-a]pyrazine], the inhibition constant Ki came out at 59.3 nM. For the compound `Cc1cc(Oc2nccn3cccc23)ccc1-c1c(C)nnc2nccn12` [Example 28, 3-methyl-4-[2-methyl-4-(pyrrolo[1,2-a]pyrazin-1-yloxy)phenyl]imidazo[2,1-c][1,2,4]triazine], the inhibition constant (Ki) came out at 198 nM. For the compound `Cc1cc(Oc2ncnn3cccc23)ccc1-c1c(C)nc2ncccn12` [Example 18, 4-[3-methyl-4-(2-methylimidazo[1,2-a]pyrimidin-3-yl)phenoxy]pyrrolo[2,1-f][1,2,4]triazine], the inhibition constant (Ki) came out at 1150 nM. The same measure, in the same setting: for `Cc1n[nH]c(=O)c(C)c1-c1ccc(Oc2nccn3cccc23)cc1` [Example 14, 4,6-dimethyl-5-[4-(pyrrolo[1,2-a]pyrazin-1-yloxy)phenyl]pyridazin-3(2H)-one] the value was 18.8 nM; for `Cc1cc(Oc2nccn3nccc23)ccc1-c1c(C)ncc2nccn12` [Example 8, 6-methyl-5-[2-methyl-4-(pyrazolo[1,5-a]pyrazin-4-yloxy)phenyl](8-^2H)imidazo[1,2-a]pyrazine], 107 nM. The same measure, in the same setting: the value for `Cc1ncnc(C#N)c1-c1ccc(Oc2nccn3cccc23)cc1F` [Example 30, 5-[2-fluoro-4-(pyrrolo[1,2-a]pyrazin-1-yloxy)phenyl]-6-methylpyrimidine-4-carbonitrile] was 59 nM. As to `Cc1ncnc(C)c1-c1ccc(Oc2nccn3nccc23)cc1` [Example 7, 4-[4-(4,6-dimethylpyrimidin-5-yl)phenoxy]pyrazolo[1,5-a]pyrazine], the Ki came to 514 nM. For the compound `Cc1cc(Oc2nccn3cccc23)ccc1-c1c(C)cnnc1C` (single isomer, unassigned) [Example 12, (−)-1-[4-(3,5-dimethylpyridazin-4-yl)-3-methylphenoxy]pyrrolo[1,2-a]pyrazine], the inhibition constant Ki worked out at 96.3 nM. As to `Cc1ncnc(C)c1-c1ccc(Oc2ncnn3cccc23)cc1F` [Example 16, 4-[4-(4,6-dimethylpyrimidin-5-yl)-3-fluorophenoxy]pyrrolo[2,1-f][1,2,4]triazine], the Ki amounted to 58.2 nM.

`Cc1ncnc(C)c1-c1ccc(Oc2ncnn3cccc23)cc1Cl` [Example 36, 4-[3-chloro-4-(4,6-dimethylpyrimidin-5-yl)phenoxy]pyrrolo[2,1-f][1,2,4]triazine]: the Ki was 48.7 nM.

Turning to `Cc1ncnc(C)c1-c1ccc(Oc2nccn3cccc23)c(F)c1C` [Example 31, 1-[4-(4,6-dimethylpyrimidin-5-yl)-2-fluoro-3-methylphenoxy]pyrrolo[1,2-a]pyrazine], the Ki stood at 179 nM. Turning to `Cc1ncnc(C)c1-c1ccc(Oc2ncnn3cccc23)c(F)c1C` [Example 32, 4-[4-(4,6-dimethylpyrimidin-5-yl)-2-fluoro-3-methylphenoxy]pyrrolo[2,1-f][1,2,4]triazine], the Ki was 116 nM. Take `COc1cc(Oc2ncnn3cccc23)ccc1-c1c(C)ncnc1C` [Example 19, 4-[4-(4,6-dimethylpyrimidin-5-yl)-3-methoxyphenoxy]pyrrolo[2,1-f][1,2,4]triazine]: the Ki is 672 nM. Consider `Cc1cc(Oc2nccn3cccc23)ccc1-c1c(C)ncnc1C` [Example 4, 1-[4-(4,6-dimethylpyrimidin-5-yl)-3-methylphenoxy]pyrrolo[1,2-a]pyrazine], for which the inhibition constant Ki worked out at 22.1 nM.

For `COc1cc(Oc2nccn3nccc23)ccc1-c1c(C)ncnc1C` [Example 23, 4-[4-(4,6-dimethylpyrimidin-5-yl)-3-methoxyphenoxy]pyrazolo[1,5-a]pyrazine], the inhibitory constant (Ki) turned out to be 894 nM.

As for `Cc1ncnc(C)c1-c1ccc(Oc2nccn3nccc23)cc1C#N` [Example 11, 2-(4,6-dimethylpyrimidin-5-yl)-5-(pyrazolo[1,5-a]pyrazin-4-yloxy)benzonitrile], the inhibitory constant (Ki) stood at 1820 nM.

As for `COc1cc(Oc2ncnn3cccc23)ccc1-c1cccnc1C` [Example 24, 4-[3-methoxy-4-(2-methylpyridin-3-yl)phenoxy]pyrrolo[2,1-f][1,2,4]triazine], the Ki stood at 83.9 nM. On to `Cc1cc(Oc2nccn3cccc23)ccc1-c1c(C)cnnc1C` (single isomer, unassigned) [Example 13, (+)-1-[4-(3,5-dimethylpyridazin-4-yl)-3-methylphenoxy]pyrrolo[1,2-a]pyrazine], for which the inhibition constant Ki amounted to 13.1 nM.

Values taken from patent publication US9856263B2, “Heteroaromatic compounds and their use as dopamine D1 ligands” (PFIZER INC., priority 2014, dated 2018).
